The source of these data is patent publication US20230075856A1, “CYCLIC SULFAMIDE COMPOUNDS FOR TREATMENT OF HBV” (Assembly Biosciences, Inc., priority 2018, published 2023).

Structures are written as SMILES.

For orientation: EC50 means the midpoint of the concentration-response curve.

In the first test the test system is HBV viral load production from HepAD38 cells. The experiment in a line: Viral production from HepAD38 cells: viral load in supernatant by qPCR of the HBV core sequence. The test is classed as cell-based. The following applies: 5 days incubation, qPCR of supernatant HBV DNA vs DMSO control, read-out: viral load lowering EC50 (Activity). The method in brief: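 Viral load was measured by qPCR of the HBV core region in supernatant, quantified against DNA standards and compared with DMSO wells. Cells (50,000/well, tetracycline withdrawn, 2% FBS) received compound from 10 μM final for 5 days; EC50 from four-parameter nonlinear regression.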
Consider `Cc1cn(-c2ccccc2F)nc1CNC(=O)C1CC(C(=O)Nc2ccc(F)c(Cl)c2)N(C)S(=O)(=O)N1` (single isomer, unassigned) [1142-ISOMER-B, N3-(3-chloro-4-fluoro-phenyl)-N5-[[1-(2-fluorophenyl)-4-methyl-pyrazol-3-yl]methyl]-2-methyl-1,1-dioxo-1,2,6-thiadiazinane-3,5-dicarboxamide], for which the EC50 fell in the range of 100 to 10000 nM. Consider `CN(C)CC(C)(C)COc1ccc(-c2ncc(CNC(=O)C3CC(C(=O)Nc4ccc(F)c(Cl)c4)N(C)S(=O)(=O)N3)s2)cc1` (single isomer, unassigned) [Compound 943-ISOMER-B, N3-(3-chloro-4-fluoro-phenyl)-N5-[[2-[4-[3-(dimethylamino)-2,2-dimethyl-propoxy]phenyl]thiazol-5-yl]methyl]-2methyl-1,1-dioxo-1,2,6-thiadiazinane-3,5-dicarboxamide], for which the concentration giving a half-maximal response (EC50) lay in the range of 100 to 10000 nM.

Regarding `Cc1nc(-c2ccc(F)cc2F)sc1CNC(=O)C1CC(C(=O)Nc2ccc(F)c(Cl)c2)N(C)S(=O)(=O)N1` (single isomer, unassigned; isomer-b) [1083-ISOMER-B, N3-(3-chloro-4-fluoro-phenyl)-N5-[[2-(2,4-difluroophenyl)-4-methyl-thiazol-5-yl]methyl]-2-methyl-1,1-dioxo-1,2,6-thiadiazinane-3,5-dicarboxamide], the concentration giving a half-maximal response (EC50) fell in the range of 100 to 10000 nM. As to `CC(C)OC1CCC(NC(=O)C2CC(C(=O)Nc3ccc(F)c(Cl)c3)N(C)S(=O)(=O)N2)CC1` (single isomer, unassigned) [Compound 862-ISOMER-B, N3-(3-chloro-4-fluoro-phenyl)-N5-(4-isopropoxycyclohexyl)-2-methyl-1,1-dioxo-1,2,6-thiadiazinane-3,5-dicarboxamide], the EC50 is below 50 nM. The same measure, in the same setting: for `C[C@@H](NC(=O)C1CC(C(=O)Nc2ccc(F)c(Cl)c2)N(C)S(=O)(=O)N1)c1ccc(F)cc1` (single isomer, unassigned; isomer-a) [493-R-ISOMER-A] the value was below 50 nM; for `COc1cccc(CNC(=O)C2CC(C(=O)Nc3ccc(F)c(Cl)c3)N(C)S(=O)(=O)N2)c1` (single isomer, unassigned) [Compound 721-ISOMER-B, N3-(3-chloro-4-fluoro-phenyl)-N5-[(3-methoxyphenyl)methyl]-2-methyl-1,1-dioxo-1,2,6-thiadiazinane-3,5-dicarboxamide], 100 to 10000 nM; for `CN(C)CCCCc1cnn(-c2ncc(CNC(=O)C3CC(C(=O)Nc4ccc(F)c(Cl)c4)N(C)S(=O)(=O)N3)s2)c1` (single isomer, unassigned) [1197-ISOMER-B, N3-(3-chloro-4-fluoro-phenyl)-N5-[[2-[4-[4-(dimethylamino)butyl]pyrazol-1-yl]thiazol-5-yl]methyl]-2-methyl-1,1-dioxo-1,2,6-thiadiazinane-3,5-dicarboxamide], 50 to 100 nM.

The same test, now with this note: Hepatitis B virus, HePAD38, 120 h, 5 days incubation, qPCR of supernatant HBV DNA vs DMSO control, read-out: viral load lowering EC50 (Activity).
With `CN1C(C(=O)Nc2ccc(F)c(Cl)c2)C[C@@H](C(=O)N[C@H](c2ccccc2)c2cnc(-c3ccccc3)s2)NS1(=O)=O` (single isomer, unassigned) [1067-ISOMER-C], the EC50 was below 50 nM. On to `Cc1sc(N2CCC(NC(=O)C3CC(C(=O)Nc4ccc(F)c(Cl)c4)N(C)S(=O)(=O)N3)CC2)nc1C(=O)N(C)C` (stereo not shown) [Compound 1093], for which the half-maximal effective concentration (EC50) was below 50 nM. Still for that read-out and setting: for `CN1C(C(=O)Nc2ccc(F)c(Cl)c2)CC(C(=O)NCc2ccccc2-c2cn(C)cn2)NS1(=O)=O` (stereo not shown) [Compound 823] the value was below 50 nM; for `CC(C)OC(=O)N1CCC(NC(=O)C2CC(C(=O)Nc3ccc(F)c(Cl)c3)N(C)S(=O)(=O)N2)CC1` (single isomer, unassigned) [Compound 766-ISOMER-A, isopropyl 4-[[5-[(3-chloro-4-fluoro-phenyl)carbamoyl]-6-methyl-1,1-dioxo-1,2,6-thiadiazinane-3-carbonyl]amino]piperidine-1-carboxylate], below 50 nM; for `CN1C(C(=O)Nc2ccc(F)c(Cl)c2)CC(C(=O)N[C@@H]2CCN(c3ccnc(Cl)c3)C2)NS1(=O)=O` (single isomer, unassigned) [1055-R-ISOMER-A], 100 to 10000 nM. On the same count and under the same terms, the result for `CN1C(C(=O)Nc2ccc(F)c(Cl)c2)CC(C(=O)NCc2cnc(-n3ccnn3)s2)NS1(=O)=O` (stereo not shown) [Compound 1158] reads below 50 nM; that for `CC(NC(=O)C1CC(C(=O)Nc2ccc(F)c(Cl)c2)N(C)S(=O)(=O)N1)c1csc(Cl)n1` (stereo not shown) [Compound 1007], below 50 nM. Same read-out and setting: the result for `CN1C(C(=O)Nc2ccc(F)c(Cl)c2)CC(C(=O)NCc2cnc(C(F)(F)F)s2)NS1(=O)=O` (stereo not shown) [Compound 498] reads 100 to 10000 nM; that for `CN1C(C(=O)Nc2ccc(F)c(Cl)c2)CC(C(=O)NCc2csc(-c3ccc(OCCN4CCCCC4)cc3)n2)NS1(=O)=O` (stereo not shown) [Compound 957], below 50 nM; that for `CN1C(C(=O)Nc2ccc(F)c(Cl)c2)CC(C(=O)NC2CCN(c3ccnc(C4CC4)c3)CC2)NS1(=O)=O` (stereo not shown) [Compound 1051], below 50 nM. With `CCN1C(C(=O)Nc2ccc(F)c(Cl)c2)CC(C(=O)NCc2cnc(C)s2)NS1(=O)=O` (single isomer, unassigned) [Compound 888-ISOMER-A, N3-(3-chloro-4-fluoro-phenyl)-2-ethyl-N5-[(2-methylthiazol-5-yl)methyl]-1,1-dioxo-1,2,6-thiadiazinane-3,5-dicarboxamide], the EC50 is 100 to 10000 nM. Consider `Cc1nc(-c2ccccc2Cl)sc1CNC(=O)C1CC(C(=O)Nc2ccc(F)c(Cl)c2)N(C)S(=O)(=O)N1` (stereo not shown) [Compound 1015], for which the 50% effective concentration (EC50) was below 50 nM. On the same count and under the same terms, the result for `CN1C(C(=O)Nc2ccc(F)c(Cl)c2)CC(C(=O)NC2CCN(c3cc(Cl)ccn3)CC2)NS1(=O)=O` (stereo not shown) [Compound 974] reads below 50 nM; that for `CN(C)CCCCc1cnn(-c2ncc(CNC(=O)C3CC(C(=O)Nc4ccc(F)c(Cl)c4)N(C)S(=O)(=O)N3)s2)c1` (stereo not shown) [Compound 1197], 100 to 10000 nM; that for `CN(C)CC(C)(C)COc1ccc(-c2ncc(CNC(=O)C3CC(C(=O)Nc4ccc(F)c(Cl)c4)N(C)S(=O)(=O)N3)s2)cc1` (single isomer, unassigned) [Compound 943-ISOMER-A, N3-(3-chloro-4-fluoro-phenyl)-N5-[[2-[4-[3-(dimethylamino)-2,2-dimethyl-propoxy]phenyl]thiazol-5-yl]methyl]-2-methyl-1,1-dioxo-1,2,6-thiadiazinane-3,5-dicarboxamide], below 50 nM.

For `Cc1cc(CNC(=O)C2CC(C(=O)Nc3ccc(F)c(Cl)c3)N(C)S(=O)(=O)N2)on1` (stereo not shown) [Compound 489], the EC50 lay in the range of 50 to 100 nM. In the case of `Cc1nc(-c2ccc(F)cc2)sc1CNC(=O)C1CC(C(=O)Nc2ccc(F)c(Cl)c2)N(C)S(=O)(=O)N1` (single isomer, unassigned) [1056-ISOMER-A, N3-(3-chloro-4-fluoro-phenyl)-N5-[[2-(4-fluorophenyl)-4-methyl-thiazol-5-yl]methyl]-2-methyl-1,1-dioxo-1,2,6-thiadiazinane-3,5-dicarboxamide], the half-maximal effective concentration (EC50) was 100 to 10000 nM. On the same count and under the same terms, for `CN1C(C(=O)Nc2ccc(F)c(Cl)c2)CC(C(=O)NC2CCN(c3ccccn3)CC2)NS1(=O)=O` (single isomer, unassigned) [Compound 769-ISOMER-A, N3-(3-chloro-4-fluoro-phenyl)-2-methyl-1,1-dioxo-N5-[1-(2-pyridyl)-4-piperidyl]-1,2,6-thiadiazinane-3,5-dicarboxamide] the value was below 50 nM; for `Cc1cccc(CNC(=O)C2CC(C(=O)Nc3ccc(F)c(Cl)c3)N(C)S(=O)(=O)N2)n1` (single isomer, unassigned) [Compound 716-ISOMER-A, N3-(3-chloro-4-fluoro-phenyl)-2-methyl-N5-[(6-methyl-2-pyridyl)methyl]-1,1-dioxo-1,2,6-thiadiazinane-3,5-dicarboxamide], below 50 nM. Same read-out and setting: for `CN1C(C(=O)Nc2ccc(F)c(Cl)c2)CC(C(=O)NCc2cnc(-c3ccc(F)cc3)s2)NS1(=O)=O` (single isomer, unassigned) [Compound 916-ISOMER-A, N3-(3-chloro-4-fluoro-phenyl)-N5-[[2-(4-fluorophenyl)thiazol-5-yl]methyl]-2-methyl-1,1-dioxo-1,2,6-thiadiazinane-3,5-dicarboxamide] the value was 100 to 10000 nM; for `CN1C(C(=O)Nc2ccc(F)c(Cl)c2)CC(C(=O)NC(c2ccccc2)c2cnc(Cl)s2)NS1(=O)=O` (stereo not shown) [Compound 1066], below 50 nM. The same measure, in the same setting: the result for `CN1C(C(=O)Nc2ccc(F)c(Cl)c2)CC(C(=O)NCc2ccccc2C(F)(F)F)NS1(=O)=O` (stereo not shown) [Compound 818] reads below 50 nM. With `CN1C(C(=O)Nc2ccc(F)c(Cl)c2)CC(C(=O)NC2CCN(c3ccnc(-c4ccccc4)c3)CC2)NS1(=O)=O` (stereo not shown) [Compound 1050], the half-maximal effective concentration (EC50) was below 50 nM.

Take `CN1C(C(=O)Nc2ccc(F)c(Cl)c2)CC(C(=O)NCc2cc(-c3ccccc3)on2)NS1(=O)=O` (single isomer, unassigned) [1149-ISOMER-A, N3-(3-chloro-4-fluoro-phenyl)-2-methyl-1,1-dioxo-N5-[(5-phenylisoxazol-3-yl)methyl]-1,2,6-thiadiazinane-3,5-dicarboxamide]: the EC50 is below 50 nM. On the same count and under the same terms, the result for `CN1C(C(=O)Nc2ccc(F)c(Cl)c2)CC(C(=O)NCc2cnc(C(F)(F)F)s2)NS1(=O)=O` (single isomer, unassigned) [Compound 498-ISOMER-A, N3-(3-chloro-4-fluoro-phenyl)-2-methyl-1,1-dioxo-N5-[[2-(trifluoromethyl)thiazol-5-yl]methyl]-1,2,6-thiadiazinane-3,5-dicarboxamide] reads 100 to 10000 nM. On to `C[C@H](NC(=O)C1CC(C(=O)Nc2ccc(F)c(Cl)c2)N(C)S(=O)(=O)N1)c1ccccc1` (stereo partly shown) [Compound 755], for which the EC50 is 100 to 10000 nM. The same measure, in the same setting: the result for `Cc1cnn(-c2ccccc2)c1CNC(=O)C1CC(C(=O)Nc2ccc(F)c(Cl)c2)N(C)S(=O)(=O)N1` (stereo not shown) [Compound 1104] reads below 50 nM.
